For one data set, the system named is Enterococcus spp. Nature of the data set: VRE cell-reporter assay (Enterococcus reporter). It is filed as cell-based, E. faecalis, E. faecium, E. casseliflavus. To be noted: 5 μg/mL vancomycin, FIG. 7 column 2. For orientation: A reporter such as luciferase makes a cellular process visible.
In data set [1] the test system is E. coli 1289011, 1289012, 1289014, and 1289018. Nature of the data set: AST meropenem/peptide-PNA disk diffusion testing. It is filed as cell-based. The settings on record: for meropenem disk diffusion result: 10 μg meropenem disk, FIG. 4; for zone diameter compared to that of meropenem alone: 10 μg meropenem disk including peptide-PNA. The method, then: Disk diffusion testing is conducted following CLSI-M02 (12) and interpreted following M100-S22 (13). Briefly, for testing each bacterium for susceptibility to meropenem, a Mueller-Hinton agar (MHA) plates are inoculated using a sterile cotton swab dipped into a suspension of a culture of bacteria at a 0.5 McFarland standard such that the entire surface of the MHA is covered. A 10 μg meropenem disk is applied to the surface of the inoculated plate and the plate is incubated at 35° C. in ambient air for 16 to 18 hours. The strain of bacteria is determined to be susceptible to meropenem if the diameter of the zone of inhibition around the meropenem disk is ≥23 mm and resistant to meropenem if the zone diameter is ≤19 mm.
The second row of FIG. 4 depicts the typical meropenem disk diffusion results for the E. coli strains where 1289011, 1289012, and 1289014 are CRE and 1289018 is CSE.
To determine the specific mechanism linked to the meropenem-resistant phenotype, disk diffusion testing is conducted with 10 μg meropenem disks including blaKPC-3- and blaNDM-1-peptide-PNA. If the peptide-PNA inhibits the specific carbapenemase linked to the meropenem resistance in the E. coli strain, then the zone diameter observed will be […] when compared to the zone diameter of the strain when exposed to a disk containing only meropenem.
For orientation: In agar diffusion tests the substance spreads into inoculated agar from a disc or well.

Data set [2] concerns E. coli 1289018, 1289023, 1289027, and 1289011. Briefly: CRISPR/Cas9 cell-reporter AST assay. It is filed as cell-based. The text has this: Enterobacteriaceae cell reporters as described in PCT/US2014/026536, Example 1 are designed with reporter plasmids that also carry single-guide[14] CRISPR/Cas9 systems with CRISPR loci that carry sequences targeting blaNDM-1 and blaSHV-18 genes (Table 1, SEQ ID NOs 11 & 13) a carbapenem resistance and extended β-lactam resistance gene, respectively. The reporter plasmid pGWP10001 is modified to include the cas9 gene, tracrRNA under the control of the PL(tetO-1) promoter, and a CRISPR cloning site, and CRISPR loci are designed to target the blaNDM-1 (SEQ ID NO 4) and blaSHV-18 (SEQ ID NO 5) genes and each are cloned into pGWP10001/CRISPR/Cas9 vectors to generate reporter plasmids that simultaneously target the blaNDM-1 and blaSHV-18 genes.
The vectors are used to generate non-replicative transduction particles carrying each plasmid and these are employed in a reporter system for determining the mechanism responsible to β-lactam non-susceptibility. Briefly, cultures of E. coli 1289018 (blaNDM-1, blaSHV-18-negative), 1289023 (blaNDM-1-positive), 1289027 (blaSHV-positive), and 1289011 (blaVIM-positive) are prepared and used to inoculate wells of a microwell plate containing 50 μL of LB with 50 μL of inoculum such that each well receives 10^4 CFU of each strain of bacteria. To these wells 100 μL of the following is added: a set of wells contain 5 μg/mL of meropenem and blaNDM-1-targetting NRTP, another set of wells contain 5 μg/mL of meropenem and blaSHV-18-NRTP, another set of wells contain 5 μg/mL of ceftazidime and blaNDM-1-targetting NRTP, and another set of wells contain 5 μg/mL of ceftazidime and blaSHV-18-NRTP. The samples are then incubated at 30° C. for 2 hours and then the samples are assayed for luminescence as described in Example 1.

The test system of data set [3] is E. coli 1289011, 1289012, 1289014, and 1289018. Briefly: Peptide-PNA cell-reporter AST assay (Enterobacteriaceae reporter). Type of data set: cell-based. As to the method:
In this example, the AST technique described in Example 2 is extended to AST testing based on cell-reporter assays. An Enterobacteriaceae cell reporter as described in PCT/US2014/026536, Example 1 is employed and the assay is run as follows. Briefly, cultures of E. coli 1289011, 1289012, 1289014, and 1289018 are prepared and used to inoculate wells of a microwell plate containing 50 μL of LB with 50 μL of inoculum such that each well receives 10^4 CFU of each strain of bacteria. A set of wells contain no additional additives, another set of wells contain 5 μg/mL of meropenem, another set of wells contain 5 μg/mL of meropenem and blaKPC-3-peptide-PNA, another set of wells contain 5 μg/mL of meropenem and blaNDM-1-peptide-PNA, and another two set of wells contain only blaKPC-3 or blaNDM-1 peptide-PNA, respectively. All wells also receive 100 μL of the Enterobacteriaceae reporter. The samples are then incubated at 30° C. for 2 hours and then the samples are assayed for luminescence as described in Example 1.

Data set [4] concerns E. coli. Nature of the data set: Enterobacteriaceae luminescent-reporter NRTP assay with murA PNA, E. coli. Type of data set: cell-based. To be noted: murA PNA 4.5 μM, 30° C. for 2 hours, FIG. 3. As to the method:
(§1) Isolates of E. coli and K. pneumoniae were grown overnight in LB at 37° C. and sub-cultured the next day at a 1:100 dilution into fresh LB and grown to an OD600 of 0.2. Inoculums of each strain of approximately 10^4 CFU of each species of bacteria were added to separate wells of a microplate each containing 50 μL of LB or LB with murA PNA at a final concentration of 4.5 μM. All wells subsequently received 100 uL of an Enterobacteriaceae luminescent-reporter non-replicative transduction particle as described in PCT/US2014/026536, Example 1 and the samples were incubated at 30° C. for 2 hours. After the incubation period, the plates were assayed for luminescence using a Molecular Devices SpectraMax L microplate luminometer in which a solution of tridecanal was injected into each well as luminescence readings were taken.

Data set [5] has as its system E. coli. Briefly: Effect of murA PNA on growth (OD600) of E. coli. It is filed as cell-based. The settings on record: murA PNA 4.5 μM in LB; OD600 over 8 hours; FIG. 1. As to the method:
(§2) Isolates of E. coli and K. pneumoniae were grown overnight in LB at 37° C. and sub-cultured the next day at a 1:100 dilution into fresh LB and grown to an optical density at 600 nm (OD600) of 0.2. Inoculums of each strain of approximately 10^4 CFU of each species of bacteria were added to separate wells of a microplate each containing 50 μL of LB or LB with murA PNA at a final concentration of 4.5 μM. OD600 readings were measured over a period of 8 hours to assess growth of PNA-treated and PNA-untreated cells.

The subject of data set [6] is K. pneumoniae. Briefly: Enterobacteriaceae luminescent-reporter NRTP assay with murA PNA, K. pneumoniae. It is filed as cell-based. The settings on record: murA PNA 4.5 μM, 30° C. for 2 hours, FIG. 3. The method, then: as §1
Data set [7] relates to K. pneumoniae. Nature of the data set: Effect of murA PNA on growth (OD600) of K. pneumoniae. Type of data set: cell-based. The settings on record: murA PNA 4.5 μM in LB; OD600 over 8 hours; FIG. 2. As to the method: as §2
[8] abbreviates: E. coli 1289018, 5 μg/mL β-lactam, regardless of which NRTP, FIG. 6 row 1.
Where [9] appears, read: E. coli 1289011, 5 μg/mL meropenem and peptide-PNA.
The mark [10] stands for this setting: E. coli 1289012, 5 μg/mL meropenem and peptide-PNA.
Where [11] appears, read: E. coli 1289014, 5 μg/mL meropenem and peptide-PNA.

From the text for Enterococcus spp.: In this example an Enterococcus cell reporter is employed in combination with vancomycin and antisense molecules targeting vanC-2 gene expression. The assay allows for the detection of VRE and discrimination from vancomycin-sensitive Enterococcus (VSE) and Enterococcus expressing the vanC-2 gene and not the vanA or vanB genes. The Enterococcus reporter is designed to cause Enterococcus spp. to produce a detectable signal. A Peptide-PNA is designed to target vanC-2 transcripts.
Briefly, cultures of VSE E. faecalis 1259012, vanA-positive VRE E. faecalis 1259016, VSE E. faecium 1269011, vanB-positive VRE E. faecium 1269014, and vanC-2-positive vancomycin non-susceptible E. casseliflavus 1279015 are prepared and used to inoculate wells of a microwell plate containing 50 μL of LB with 50 μL of inoculum such that each well receives 10^4 CFU of each strain of bacteria. A set of wells contains no additional additives, another set of wells contains 5 μg/mL of vancomycin, and another set of wells contains 5 μg/mL of vancomycin and vanC-2-peptide-PNA. All wells also receive 100 μL of the Enterococcus reporter. The samples are then incubated at 37° C. for 2 hours and then the samples are assayed for luminescence as described in Example 1.

`CN[C@H](CC(C)C)C(=O)N[C@H]1C(=O)N[C@@H](CC(N)=O)C(=O)N[C@H]2C(=O)N[C@H]3C(=O)N[C@H](C(=O)N[C@H](C(=O)O)c4cc(O)cc(O)c4-c4cc3ccc4O)[C@H](O)c3ccc(c(Cl)c3)Oc3cc2cc(c3O[C@@H]2O[C@H](CO)[C@@H](O)[C@H](O)[C@H]2O[C@H]2C[C@](C)(N)[C@H](O)[C@H](C)O2)Oc2ccc(cc2Cl)[C@H]1O` [vancomycin]: the reporter assay signal entry in the data set on Enterococcus spp. (strains expressing a van gene) is reported as “continue to give a positive signal”; with Enterococcus spp. (strains not carrying a van gene), “do not”.

Regarding `C[C@@H](O)[C@H]1C(=O)N2C(C(=O)O)=C(S[C@@H]3CN[C@H](C(=O)N(C)C)C3)[C@H](C)[C@H]12` [meropenem, reference compound], the “meropenem disk diffusion result” value in data set [1] (E. coli 1289011) is recorded as “CRE”; in data set [1] (E. coli 1289012), “CRE”; in data set [1] (E. coli 1289014), “CRE”; in data set [1] (E. coli 1289018), “CSE”. The “inhibition in reporter assay” value in data set [2] (setting [8]) is “inhibited”; in data set [2] (E. coli 1289027 (blaSHV-positive), 5 μg/mL meropenem, FIG. 6 row 3) it was “inhibited”. In addition, the reporter assay signal entry in data set [3] (5 μg/mL meropenem, all E. coli strains except 1289018, FIG. 5 column 2) is “continue to give a positive signal”.

Turning to `CC(C)(O/N=C(\C(=O)N[C@@H]1C(=O)N2C(C(=O)[O-])=C(C[n+]3ccccc3)CS[C@H]12)c1csc(N)n1)C(=O)O` [ceftazidime], the “inhibition in reporter assay” value in data set [2] (setting [8]) was “inhibited”.

As for “blaNDM-1 peptide-PNA: PNA (SEQ ID NO 3) targeting the TIR of blaNDM-1, conjugated to the peptide KFFKFFKFFK (TCAAGTTTTCC; all peptide nucleic acid (PNA); further chemistry not fully specified)”, the “zone diameter compared to that of meropenem alone” value is on record as “not reduced” in data set [1] (E. coli 1289011), “not reduced” in data set [1] (E. coli 1289012) and “reduced” in data set [1] (E. coli 1289014). Besides, the reporter assay signal entry in data set [3] (setting [9]) was “continues to produce a positive signal”; in data set [3] (setting [10]), “continues to produce a positive signal”; in data set [3] (setting [11]), “no longer produces a positive signal”.

On to “blaKPC-3 peptide-PNA: PNA (SEQ ID NO 2) targeting the TIR of blaKPC-3, conjugated to the peptide KFFKFFKFFK (TCAACGATAT; all peptide nucleic acid (PNA); further chemistry not fully specified)”, for which the “zone diameter compared to that of meropenem alone” value in data set [1] (E. coli 1289011) is listed as “not reduced”; in data set [1] (E. coli 1289012), “reduced”; in data set [1] (E. coli 1289014), “not reduced”. The figures for the reporter assay signal result in data set [3] (setting [9]), in data set [3] (setting [10]) and in data set [3] (setting [11]) were “continues to produce a positive signal”, “no longer produces a positive signal” and “continues to produce a positive signal”, respectively.

With “KFFKFFKFFK-eg-ccatttagtt (CCATTTAGTT; all peptide nucleic acid (PNA); further chemistry not fully specified) [murA PNA]”, the “luminescence signal produced by E. coli” value in the data set on E. coli [4] is recorded as “compromised”. Besides, the “growth of E. coli” value in the data set on E. coli [5] is listed as “compromised”. Also, the “luminescence signal produced by K. pneumoniae” value in the data set with K. pneumoniae [6] was “does not inhibit signal production”. In the data set with K. pneumoniae [7], the “growth of K. pneumoniae” value is listed as “not compromised”.

The values above are taken from patent US10822664B2, “Sequence-specific detection and phenotype determination” (priority 2015, dated 2020).
